The values below come from patent publication US6458194B1, “Azo dye compound having 1,2,4-triazole as the azo component” (Fuji Photo Film Co., Ltd., priority 1999, dated 2002).

The structures appear in SMILES notation.

Common to all, as to type: physicochemical
Data set [1] in a line: Color fastness against light, Xe lamp irradiation of recorded image. The following applies: Xe lamp 17,000 lux, 3 days; portion with initial reflection density 1.0. The text has this: Next, the thermal transfer image accepting materials after such recording were irradiated with a Xe lamp (17,000 lux) for 3 days to evaluate the color fastness. More specifically, a portion showing a status-A reflection density of 1.0 before the irradiation was again measured for the status-A reflection density after the irradiation, which was expressed in a residual rate (in percent) to the pre-irradiation reflection density.

A short description of data set [2]: Absorption characteristic in ethyl acetate. An excerpt: FIG. 1 is a spectrum chart showing an absorption characteristic in ethyl acetate of Compound 9 of the present invention where optical density of the transmitted light through a cell having the light path length of 1 cm is 1.0. Wave lengths giving the maximum absorption (λmax) are 428 nm for Compound 9, 440 nm for Compound 18, 438 nm for Compound 31, 442 nm for Compound 32, 435 nm for Compound 33 and 434 nm for Compound 3.

Data set [3] is described as follows: Suitability in ink production (solubility of coating composition for dye donating layer). The text has this:
Suitability in Ink Production:
∘ coating composition for the thermal transfer dye donating layer has a good solubility;
Δ time-consuming heating is necessary to dissolve the coating composition for the thermal transfer dye donating layer; and
X incomplete solubilization of the coating composition for the thermal transfer dye donating layer having a undissolved portion of the dye crystal.

With `CSc1nsc(N=Nc2c(C(C)(C)C)nn3nc(C(C)CN4C(=O)c5ccccc5C4=O)[nH]c23)n1` (stereo not drawn) [Compound 15], the “Color Fastness (residual rate of status-A reflection density)” value in data set [1] worked out at 89%.
Same read-out and setting: the figure for `CCSc1nsc(/N=N/c2c(-c3ccccc3Cl)nn3nc(C(C)C)[nH]c23)n1` [Compound 34] is 91%; for `Cc1nn2nc(C(C)C)c(N=Nc3nc(-c4ccccc4)ns3)c2[nH]1` [Compound 21] it is 87%.
For `CCS(=O)(=O)c1nsc(N=Nc2c(C(C)(C)C)nn3nc(C(C)C)[nH]c23)n1` [Compound 32], the “Wave length giving the maximum absorption (λmax)” value in data set [2] was 442 nm. The “Color Fastness (residual rate of status-A reflection density)” value in data set [1] is recorded as 93%.
Consider `CC(C)c1nn2nc(-c3ccccc3Cl)c(N=Nc3nc(-c4ccccc4)ns3)c2[nH]1` [Compound 9], for which, in data set [2], the “Wave length giving the maximum absorption (λmax)” value is 428 nm. In addition, in data set [1], the “Color Fastness (residual rate of status-A reflection density)” value stood at 92%.
For `CCOc1nn2nc(C)[nH]c2c1N=Nc1nc(-c2ccc(C(F)(F)F)cc2)ns1` [Compound 11], the “Color Fastness (residual rate of status-A reflection density)” value in data set [1] turned out to be 88%.
On the same count and under the same terms, the figure for `CSc1nsc(N=Nc2c(C(C)(C)C)nn3nc(C(C)CN4C(=O)C=CC4=O)[nH]c23)n1` (stereo not drawn) [Compound 25] is 90%.
On the same count and under the same terms, the figure for `CSc1nsc(N=Nc2c(-c3ccccc3)nn3nc(C(C)C)[nH]c23)n1` [Compound 7] is 90%.
On to `CCSc1nsc(N=Nc2c(C(C)(C)C)nn3nc(C(C)C)[nH]c23)n1` [Compound 31], for which the “Wave length giving the maximum absorption (λmax)” value in data set [2] is 438 nm. The “Color Fastness (residual rate of status-A reflection density)” value in data set [1] was 90%.
`CSc1nsc(N=Nc2c(C(C)(C)C)nn3nc(C(C)C)[nH]c23)n1` [Compound 4]: the “Color Fastness (residual rate of status-A reflection density)” value in data set [1] turned out to be 90%.
On to `CCSc1nsc(N=Nc2c(C)nn3c(C(C)(C)C)n[nH]c23)n1` [Comparative Compound “a”, reference compound], for which the “Color Fastness (residual rate of status-A reflection density)” value in data set [1] turned out to be 89%. Also, the “Suitability for ink production (in words)” value in data set [3] is listed as “inferior”.
Take `CCCc1nn2nc(C(C)(C)C)c(N=Nc3nc(SC)ns3)c2[nH]1` [Compound 5]: the “Color Fastness (residual rate of status-A reflection density)” value in data set [1] was 91%.
Same read-out and setting: in the case of `COc1ccc(-c2nsc(N=Nc3c(C(C)(C)C)nn4nc(C(C)C)[nH]c34)n2)cc1` [Compound 20] it was 88%.
For `CCS(=O)(=O)c1nsc(N=Nc2c(-c3ccccc3Cl)nn3nc(C(C)C)[nH]c23)n1` [Compound 18], in data set [2], the “Wave length giving the maximum absorption (λmax)” value is 440 nm. Besides, the “Color Fastness (residual rate of status-A reflection density)” value in data set [1] was 91%.
Consider `Cc1nn2nc(C(C)(C)C)c(N=Nc3nc(-c4ccccc4)ns3)c2[nH]1` [Compound 10], for which the “Color Fastness (residual rate of status-A reflection density)” value in data set [1] was found to be 90%.
Turning to `CCSc1nsc(N=Nc2c(C)nn3nc(C)[nH]c23)n1` [Compound 3], in data set [2], the “Wave length giving the maximum absorption (λmax)” value came to 434 nm.
